Measured values as given in ChEMBL document CHEMBL1132898, “COBRA-1, a rationally-designed epoxy-THF containing compound with potent tubulin depolymerizing activity as a novel anticancer agent” (2000).
The source made the active and inactive calls. The rule behind the calls is not given here.

Tests used:
Homo sapiens = species on record: Homo sapiens; assay: Concentration for inhibition of proliferation of BT-20 by impairing the mitotic spindle assembly; Range 1-10 uM; format: functional
BT-20 = assay: Concentration of compound that increased the level of c-jun mRNA expression in BT-20 breast cancer cells; format: functional, cell-based; conditions: Homo sapiens
NALM-6 [1] = assay: Compound (10 uM) was tested for its ability to kill clonogenic NALM-6 cells; format: functional, Homo sapiens
NALM-6 [2] = assay: Compound (100 uM) was tested for its ability to kill clonogenic NALM-6 leukemia cells at 100 uM; format: functional, Homo sapiens
NALM-6 [3] = assay: Cytotoxic activity (<10 uM) against clonogenic NALM-6 leukemia using standard in vitro clonogenic assay; No effect; format: functional, cell-based; conditions: Homo sapiens
PC-3 [4] = assay: Compound (10 uM) was tested for its ability to kill clonogenic PC-3 cells; format: functional, Homo sapiens
PC-3 [5] = assay: Compound (100 uM) was tested for its ability to kill clonogenic PC-3 cells at 100 uM; format: functional, Homo sapiens
PC-3 [6] = assay: Cytotoxic activity (<10 uM) against PC-3 prostate cancer cells using standard in vitro clonogenic assay; No effect; format: functional, cell-based; conditions: Homo sapiens
U373 MG [7] = assay: Concentration of compound that increased the level of c-jun mRNA expression in U373 glioblastoma cells; format: functional, cell-based; conditions: Homo sapiens; U-373MG ATCC
[8] = molecular target: Tubulin alpha chain (Sus scrofa) (UniProt P02550); assay: Compound was tested for tubulin polymerization in presence of GTP by using cell free tubulin turbidity assay; Active; format: functional
U373 MG [9] = assay: Concentration for inhibition of proliferation of U373 by impairing the mitotic spindle assembly at a concentration; Range 1-10 uM; format: functional, cell-based; conditions: Homo sapiens; U-373MG ATCC

Tubulin alpha chain (Sus scrofa), sequence (P02550 whole entry, looked up): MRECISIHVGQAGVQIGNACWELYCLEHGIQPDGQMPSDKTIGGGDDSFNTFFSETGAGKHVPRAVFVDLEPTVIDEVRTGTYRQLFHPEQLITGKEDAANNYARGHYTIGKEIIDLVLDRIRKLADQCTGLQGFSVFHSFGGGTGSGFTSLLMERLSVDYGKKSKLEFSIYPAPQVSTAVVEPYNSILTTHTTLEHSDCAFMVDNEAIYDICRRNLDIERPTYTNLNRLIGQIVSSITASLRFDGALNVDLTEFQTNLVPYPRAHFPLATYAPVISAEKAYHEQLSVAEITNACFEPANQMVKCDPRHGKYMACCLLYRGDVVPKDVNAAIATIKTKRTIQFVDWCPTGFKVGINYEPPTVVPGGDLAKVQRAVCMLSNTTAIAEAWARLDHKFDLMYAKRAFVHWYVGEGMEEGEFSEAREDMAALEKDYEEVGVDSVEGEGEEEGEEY

## C=CCC[C@H](O)[C@H]1CC[C@H]([C@H](O)CCCCCCCCCCCC)O1
Homo sapiens
  Concentration: 10 µM
BT-20
  Concentration: 250 µM
NALM-6 [1]
  Cell kill: 99%
NALM-6 [2]
  Cell kill: >99.9%
NALM-6 [3]
  Concentration: inactive
PC-3 [4]
  Cell kill: 91%
PC-3 [5]
  Cell kill: >99.9%
PC-3 [6]
  Concentration: inactive
U373 MG [7]
  Concentration: 250 µM
[8]
  inhibition: Active
U373 MG [9]
  Concentration: 10 µM
